For the assay, the target named is Mitogen-activated protein kinase 1 (Mus musculus, UniProt P63085). Kind of assay: IMAP Assay : Condition 1: Activated ERK2 activity was also determined in the IMAP assay format using the procedure outlined above. 1 μl of 25× compound was added to […] of kinase buffer containing 0.25 ng fully phosphorylated, active Mouse ERK2 protein. Following a 30 minute incubation, the reactions were initiated by addition of 10 μl of kinase buffer containing 1 μM ERK2 IMAP substrate peptide (0.9 μM unlabeled […]-CONH2 and 100 nM […](5-carboxyfluorescein)-CONH2) and 30 μM ATP. Reactions proceeded for 30 minutes before termination by addition of 60 μl IMAP detection beads in binding buffer. Plates were read as above after 30 minute binding equilibration. Active compounds were reconfirmed in an independent assay.
Sequence of Mitogen-activated protein kinase 1 (P63085 whole entry): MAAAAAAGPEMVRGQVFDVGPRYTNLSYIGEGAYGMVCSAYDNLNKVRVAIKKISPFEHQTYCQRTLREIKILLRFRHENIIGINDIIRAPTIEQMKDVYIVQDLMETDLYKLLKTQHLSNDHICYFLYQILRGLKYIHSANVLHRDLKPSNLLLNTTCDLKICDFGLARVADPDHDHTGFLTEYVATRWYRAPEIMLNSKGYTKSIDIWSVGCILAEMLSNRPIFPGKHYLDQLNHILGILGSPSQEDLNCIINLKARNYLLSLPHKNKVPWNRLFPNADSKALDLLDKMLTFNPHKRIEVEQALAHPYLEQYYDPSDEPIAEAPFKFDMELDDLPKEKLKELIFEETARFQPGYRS

On to `COc1cccc(F)c1CN1C[C@H](NC(=O)c2ccc3[nH]nc(-c4ccncc4)c3c2)CC[C@H]1C(=O)N1CCC(F)(F)CC1`, for which the concentration for half-maximal inhibition (IC50) – broadly, the concentration needed to halve the response being measured – was 35 nM.

The record behind these values is ChEMBL document CHEMBL3638826, “Heterocyclic compounds as ERK inhibitors” (2015).
